Test results from article PMC9961948, “Interaction of Amphipathic Peptide from Influenza Virus M1 Protein with Mitochondrial Cytochrome Oxidase” (International Journal of Molecular Sciences, 2023).

Biological target: T1, cytochrome c oxidase (CcO) purified from heart mitochondria (Bos taurus, UniProt P00396+P07471+P68530)
T1 construct: Cytochrome c oxidase was purified from the heart mitochondria of Bos taurus; from tissue; host or cells: bovine heart mitochondria
Test: Cytochrome oxidase activity of solubilized mitochondrial CcO (oxygen uptake)
Format: biochemical
Settings: solubilized bovine heart CcO 20 nM; oxygen uptake, Clark electrode, 25 °C; BM 50 mM Hepes/Tris pH 7.6, 50 mM KCl, 1 mM (0.05%) DM; 5 mM ascorbate, 0.1 mM TMPD, 10 μM cytochrome c; fit by Equation (1); read-out: Inhibition of CcO, Solubilized, Ki(app)

Q: With Ac-STKLWEMLVELGNMDKAVKLWRKLSR-NH2 [A4] as the substance, how does the Ki read?
A: 0.0223 mM
